Test results taken from US8541464B2, “Treatment of atrial fibrillation” (HUYA Biosciences International LLC, priority 2009, dated 2013).
Values joined by “and” are separate entries in the source; they are usually repeats but may differ in a detail not shown here. Identical values can stand only once.

What was measured:
dogs = assay: Heart rate and blood pressure during slow (45 min) infusion in dogs; assay type: in vivo, dog; conditions: for Heart rate / Mean blood pressure: 14 mg/kg i.v. over 45 minutes
Experimental: Three additional animals received sulcardine sulfate (14 mg/kg, i.v.) infused over 45 minutes. The purpose of this study was to investigate whether or not a slow infusion (45 min) of sulcardine sulfate would affect heart rate and blood pressure. […] The change in blood pressure was modest, most likely due to a compensatory increase in the resting heart rate.

anesthetized dogs = assay: Cardiovascular safety in anesthetized dogs with diphenhydramine pretreatment; assay type: in vivo, dog; conditions: diphenhydramine pre-treated animals
Experimental: (§1) Dogs were administered morphine (2 mg/kg subcutaneously) approximately 10-19 minutes prior to administration of anesthesia. Dogs were anesthetized with 1% α-chloralose (100 mg/kg intravenous), followed by a constant infusion of α-chloralose (35-75 mg/kg/hr, IV). Two healthy female dogs were administered escalating doses of sulcardine sulfate intravenously over 15 minutes in an acetate buffer system at dose levels of 10, 30 and 90 mg/kg with dose administrations separated by 60 minutes. Another set of two dogs received test article after pre-treatment with diphenhydramine (1 mg/kg administered 30 minutes prior to start of test article infusion). Following drug administration, dogs were evaluated for ventricular, pulmonary and peripheral hemodynamic changes using Swanz Ganz and femoral catheters as well as by monitoring of blood oxygen saturation, test article blood level, body temperature, blood biochemistry, hematology, ECG, and histamine levels.
Group 2 Animals: Sulcardine sulfate at 10, 30 and 90 mg/kg with diphenhydramine (1 mg/kg) administered approximately 30 minutes before treatment with 10 mg/kg sulcardine sulfate. Animals pre-treated with diphenhydramine (H1 antagonist) and dosed with sulcardine sulfate at 10 mg/kg, presented hemodynamic changes which are mediated by H2 receptors. The changes resembled those noted in Group 1 animals, but were of a reduced magnitude. […]

[1] = Plasma PK in Beagle dog after oral and IV administration; assay type: in vivo; parameters: AUC / CLs / Tmax / V/F (c): unit not given here; Cmax: unit: μg/mL
[2] = as above; assay type: in vivo; parameters: Tmax: unit not given here
Experimental: In dogs an PO dose of 40 mg/kg (efficacious oral dose range) gives peak levels of 2.1 μg/mL (4.6 μM). […] These PK data and extrapolated conclusion are in agreement with the CV safety study, where PK after 15 minute infusion was conducted. In general, the mean concentrations peaked at the 10-minute time point, post-initiation, for each 15-minute infusion of sulcardine sulfate at 10 and 30 mg/kg (efficacious dose against ventricular arrhythmia). The mean peak plasma concentrations were 1.8 (4.2 μM) and 11.2 μg/mL (24.6 μM), respectively (data not shown). These values were well below in the case of the lower dose to barely reaching some but not all atrial cell patch clamp IC50s on various ion channels, although still associated with significant drops in mean arterial pressure, tachycardia, QT interval prolongation and changes in ventricular contractility were observed.

[3] = Plasma concentration in dog cardiovascular safety study; assay type: in vivo
Experimental: as §1, with “90-mg/kg” for “90 mg/kg”, “minutes.” for “minutes. Another set of two dogs received test article after pre-treatment with diphenhydramine (1 mg/kg administered 30 minutes prior to start of test article infusion).”, “biochemistries, hematologies,” for “biochemistry, hematology,”, “histamine.” for “histamine levels.”
The mean peak sulcardine sulfate concentrations which peaked generally at the […] of each 15 minute infusion of sulcardine sulfate at 10, 30 and 90 mg/kg were 1.8, 11.2 and 100.1 μg/mL respectively which translated into approximately 4, 24.6 and 218 μM.

post-MI beagle dogs = assay: Hemodynamic effects in anesthetized post-MI sudden cardiac death model; assay type: in vivo, beagle dog; conditions: 15 mg/kg
Experimental: A hemodynamic effects study of sulcardine sulfate in an anesthetized post-MI sudden cardiac death model study was also performed. The study population consisted of ten purpose-bred, female beagle dogs, weighing 10.0-12.0 Kg. The animals had left ventricular wall ischemic injury induced by a 90-minute occlusion of the left anterior descending coronary artery followed by reperfusion. Five animals were treated with sulcardine sulfate (15 mg/kg) infused intravenously over 10 minutes, and the remaining five animals were vehicle dogs treated with 0.9% sodium chloride solution (placebo). Lowest mean arterial blood pressure was measured every 15 minutes for a total period of 120 minutes after treatment.

sulcardine sulfate
Heart rate (dogs; time 10 minutes): 95.0 ± 7.6 bpm
Mean blood pressure (dogs; time 10 minutes): 165.3 ± 0.3 mmHg
Heart rate (dogs; time 25 minutes): 115.0 ± 5.8 bpm
Mean blood pressure (dogs; time 25 minutes): 167.7 ± 9.8 mmHg
Heart rate (dogs; time 40 minutes): 115.0 ± 5.0 bpm
Mean blood pressure (dogs; time 40 minutes): 162.7 ± 11.3 mmHg
Heart rate (dogs; time 55 minutes): 103.3 ± 6.0 bpm
Mean blood pressure (dogs; time 55 minutes): 152.0 ± 16.2 mmHg
effect of slow intravenous administration on resting blood pressure and/or heart rate (dogs; total intravenous dose of 14 mg/kg over 45 min): did not result in a marked change in resting blood pressure and/or heart rate
mortality (anesthetized dogs; 90 mg/kg, final 15-minute infusion): all animals succumbed
severity of tachycardia (anesthetized dogs; after completion of dosing at 30 mg/kg): above 200 % of baseline
AUC ([1]; 8 mg/kg fast i.v push): 4.750 ± 1.778
CLs ([1]; 8 mg/kg fast i.v push): 1.850 ± 0.5911
K10 ([1]; 8 mg/kg fast i.v push): 0.7378 ± 0.2645 h⁻¹
K12 ([1]; 8 mg/kg fast i.v push): 1.982 ± 1.157 h⁻¹
K21 ([1]; 8 mg/kg fast i.v push): 0.5196 ± 0.3149 h⁻¹
T1/2α ([1]; 8 mg/kg fast i.v push): 0.2898 ± 0.2041 h
T1/2β ([1]; 8 mg/kg fast i.v push): 6.107 ± 1.537 h
V/F (c) ([1]; 8 mg/kg fast i.v push): 2.815 ± 1.714
AUC ([1]; 40 mg/kg po): 19.57 ± 2.414
CLs ([1]; 40 mg/kg po): 2.065 ± 0.2283
Cmax ([1]; 40 mg/kg po): 2.121 ± 0.4025
K12 ([1]; 40 mg/kg po): 0.1806 ± 0.0817 h⁻¹
K21 ([1]; 40 mg/kg po): 0.1778 ± 0.1295 h⁻¹
T1/2Ka ([1]; 40 mg/kg po): 0.5663 ± 0.1687 h
T1/2α ([1]; 40 mg/kg po): 1.636 ± 0.6148 h
T1/2β ([1]; 40 mg/kg po): 12.21 ± 3.412 h
V/F (c) ([1]; 40 mg/kg po): 12.08 ± 2.621
AUC ([1]; 80 mg/kg po): 83.53 ± 21.27
CLs ([1]; 80 mg/kg po): 1.013 ± 0.2956
Cmax ([1]; 80 mg/kg po): 8.849 ± 1.789
K10 ([1]; 80 mg/kg po): 0.1166 ± 0.0731 h⁻¹
K12 ([1]; 80 mg/kg po): -8.226 ± 16.60 h⁻¹
K21 ([1]; 80 mg/kg po): 10.10 ± 19.85 h⁻¹
T1/2Ka ([1]; 80 mg/kg po): 0.3681 ± 0.2443 h
T1/2α ([1]; 80 mg/kg po): 1.670 ± 1.068 h
T1/2β ([1]; 80 mg/kg po): 8.631 ± 2.294 h
Tmax ([1]; 80 mg/kg po): 1.407 ± 0.6461
V/F (c) ([1]; 80 mg/kg po): 16.60 ± 18.60
AUC ([1]; 160 mg/kg po): 291.6 ± 29.13
CLs ([1]; 160 mg/kg po): 0.5527 ± 0.0533
Cmax ([1]; 160 mg/kg po): 19.10 ± 3.412
K10 ([1]; 160 mg/kg po): 0.0856 ± 0.0155 h⁻¹
K12 ([1]; 160 mg/kg po): -0.0620 ± 0.1371 h⁻¹
K21 ([1]; 160 mg/kg po): 1.474 ± 1.562 h⁻¹
T1/2Ka ([1]; 160 mg/kg po): 0.8257 ± 0.5284 h
T1/2α ([1]; 160 mg/kg po): 1.758 ± 1.790 h
T1/2β ([1]; 160 mg/kg po): 9.640 ± 1.532 h
Tmax ([1]; 160 mg/kg po): 2.700 ± 1.001
V/F (c) ([1]; 160 mg/kg po): 6.528 ± 0.6551
Cmax read from PK curve ([1]; dogs, IV 8 mg/kg): about 10 μg/mL
K10 ([2]; 40 mg/kg po): 0.1748 ± 0.0306 h⁻¹
Tmax ([2]; 40 mg/kg po): 1.508 ± 0.4160
peak levels ([2]; dogs, PO 40 mg/kg, 40 mg/kg): 2.1 μg/mL and 4.6 μM
mean peak plasma concentration ([3]; 90 mg/kg, 15 minute infusion): 100.1 μg/mL and ~218 μM
Cmax ([3]; dogs, read-out: Cmax that led to observed side effects such as hypotension): 25 µM
time after completion of infusion by which arterial blood pressure was not different from baseline or placebo (post-MI beagle dogs): ≤ 50 min
mean arterial blood pressure compared to baseline values (post-MI beagle dogs; at fifteen, thirty, and forty-five minutes after completing a 10 minute infusion, P<0.05): significantly lower
